Measurements: PubChem BioAssay AID330 (DTP/NCI, 2004)
Toxic doses and inconclusive results are not listed.

Test system: P388 leukemia ip, CD2F1 mice, survival T/C
Experiment: NCI In Vivo Anticancer Drug Screen. Data for tumor model P388 Leukemia (intraperitoneal) in CD2F1 (CDF1) mice
Settings: endpoint: median survival time, higher = longer survival
Outline: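 Mice carrying the transplanted tumor received test compound or vehicle. Survival was recorded in each group, and the value is the treated-group measurement divided by that of the vehicle-treated control group.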

[1] = dose: 25.0 mg/kg/injection, schedule: Q01DX009 (ip), vehicle: other
[2] = dose: 50.0 mg/kg/injection, schedule: Q01DX009 (ip), vehicle: other
[3] = dose: 100.0 mg/kg/injection, schedule: Q01DX009 (ip), vehicle: other
[4] = dose: 50.0 mg/kg/injection, schedule: Q01DX009 (ip), vehicle: saline with Tween-80
[5] = dose: 100.0 mg/kg/injection, schedule: Q01DX009 (ip), vehicle: saline with Tween-80
[6] = dose: 200.0 mg/kg/injection, schedule: Q01DX009 (ip), vehicle: saline with Tween-80

Compound: CC(C)N[C@@H]1CCC[C@H]1O
- T/C (dose: 100.0 mg/kg/injection, schedule: Q01DX001 (ip), vehicle: Klucel (hydroxypropylcellulose) (HPC)): 105 % of control
- T/C (dose: 200.0 mg/kg/injection, schedule: Q01DX001 (ip), vehicle: Klucel (hydroxypropylcellulose) (HPC)): 113 % of control
- T/C (dose: 400.0 mg/kg/injection, schedule: Q01DX001 (ip), vehicle: Klucel (hydroxypropylcellulose) (HPC)): 115 % of control

Compound: COC(=O)C1(C2(C(=O)OC)NC(C)=C(c3ccccc3)C(=O)O2)NC(C)=C(c2ccccc2)C(=O)O1 (configuration not stated)
- T/C (dose: 50.0 mg/kg/injection, schedule: Q01DX005 (ip), vehicle: saline with Tween-80): 97 % of control
- T/C (dose: 100.0 mg/kg/injection, schedule: Q01DX005 (ip), vehicle: saline with Tween-80): 100 % of control
- T/C (dose: 200.0 mg/kg/injection, schedule: Q01DX005 (ip), vehicle: saline with Tween-80): 91 % of control

Compound: O=[N+]([O-])c1cc2[nH]cnc2c([N+](=O)[O-])c1Nc1ccc(O)cc1
- T/C (dose: 100.0 mg/kg/injection, schedule: Q04DX003 (ip), vehicle: saline with Tween-80): 87 % of control
- T/C (dose: 200.0 mg/kg/injection, schedule: Q04DX003 (ip), vehicle: saline with Tween-80): 95 % of control
- T/C (dose: 400.0 mg/kg/injection, schedule: Q04DX003 (ip), vehicle: saline with Tween-80): 101 % of control

Compound: COc1cccc2c1C(=O)c1c(O)c3c(c(O)c1C2=O)C[C@@](O)(C(=O)CO)C[C@@H]3OC1CC(NC(C)=O)C(O)C(C)O1 (some centres not stated)
- T/C (dose: 0.2 mg/kg/injection, schedule: Q01DX009 (ip), vehicle: water): 96 % of control
- T/C (dose: 0.39 mg/kg/injection, schedule: Q01DX009 (ip), vehicle: water): 107 % of control
- T/C (dose: 0.78 mg/kg/injection, schedule: Q01DX009 (ip), vehicle: water): 116 % of control
- T/C (dose: 1.56 mg/kg/injection, schedule: Q01DX009 (ip), vehicle: water): 122 % of control
- T/C (dose: 3.13 mg/kg/injection, schedule: Q01DX009 (ip), vehicle: water): 120 % of control
- T/C [1]: 156 % of control
- T/C [2]: 195 % of control
- T/C (dose: 50.0 mg/kg/injection, schedule: Q01DX009 (ip), vehicle: water): 172 % of control
- T/C [3]: 201 % of control
- T/C (dose: 200.0 mg/kg/injection, schedule: Q01DX009 (ip), vehicle: other): 192 % of control

Compound: NC(=S)c1cccc(C2Nc3ccccc3O2)c1 (configuration not stated)
- T/C [4]: 94 % of control
- T/C [5]: 104 % of control
- T/C [6]: 104 % of control

Compound: CC(=O)NCCSC(NC(=O)Cc1ccccc1)C(=O)O (configuration not stated)
- T/C (dose: 50.0 mg/kg/injection, schedule: Q01DX009 (ip), vehicle: Klucel (hydroxypropylcellulose) (HPC)): 94 % of control
- T/C (dose: 100.0 mg/kg/injection, schedule: Q01DX009 (ip), vehicle: Klucel (hydroxypropylcellulose) (HPC)): 97 % of control
- T/C (dose: 200.0 mg/kg/injection, schedule: Q01DX009 (ip), vehicle: Klucel (hydroxypropylcellulose) (HPC)): 100 % of control

Compound: COc1cc2cc3c4cc5c(cc4cc[n+]3c(C)c2cc1OC)OCO5 (tested in a mixture with another compound)
- T/C (dose: 15.0 mg/kg/injection, schedule: Q04DX003 (ip), vehicle: saline): 153 % of control

Compound: CN(C)c1ccc(/C=C/c2ccc(Br)cc2)cc1
- T/C [4]: 89 % of control
- T/C [5]: 88 % of control
- T/C [6]: 89 % of control

Compound: CC(C)C(=O)N1CCCCCN1C(=O)C(C)C
- T/C (dose: 100.0 mg/kg/injection, schedule: Q01DX001 (ip), vehicle: suspension in saline): 100 % of control
- T/C (dose: 200.0 mg/kg/injection, schedule: Q01DX001 (ip), vehicle: suspension in saline): 95 % of control
- T/C (dose: 400.0 mg/kg/injection, schedule: Q01DX001 (ip), vehicle: suspension in saline): 94 % of control

Compound: CCCCOc1ccc(C(C)c2cc3c(cc2OC)OCO3)cc1 (configuration not stated)
- T/C (dose: 25.0 mg/kg/injection, schedule: Q01DX005 (ip), vehicle: Klucel (hydroxypropylcellulose) (HPC)): 107 % of control
- T/C (dose: 50.0 mg/kg/injection, schedule: Q01DX005 (ip), vehicle: Klucel (hydroxypropylcellulose) (HPC)): 95 % of control
- T/C (dose: 100.0 mg/kg/injection, schedule: Q01DX005 (ip), vehicle: Klucel (hydroxypropylcellulose) (HPC)): 101 % of control
- T/C (dose: 200.0 mg/kg/injection, schedule: Q01DX005 (ip), vehicle: Klucel (hydroxypropylcellulose) (HPC)): 98 % of control

Compound: Nc1cc2c(cn1)[nH]c1ccccc12
- T/C (dose: 12.5 mg/kg/injection, schedule: Q01DX009 (ip), vehicle: other): 108 % of control
- T/C [1]: 101 % of control
- T/C [2]: 108 % of control
- T/C (dose: 60.0 mg/kg/injection, schedule: Q01DX005 (ip), vehicle: saline with Tween-80): 97 % of control
- T/C [3]: 106 % of control
- T/C (dose: 120.0 mg/kg/injection, schedule: Q01DX005 (ip), vehicle: saline with Tween-80): 106 % of control
